Holding throughout (assay type): biochemical
Test [1] concerns the target PKB (Homo sapiens, UniProt P31749). The test can be described thus: Inhibition of PKB.
The subject of test [2] is RAF. As to the kind of experiment: Inhibition of RAF.
For test [3], the target named is Tie2 (Homo sapiens, UniProt Q02763). The test can be described thus: Inhibition of Tie2.

Our source for the IC50 values is patent US8304416B2, “Chromenone derivatives” (Merck Patent GmbH, priority 2003, dated 2012).

pIC50: −log10 of the molar value. Some results are limits rather than exact numbers.

Sequence of PKB (P31749 whole entry, species assumed): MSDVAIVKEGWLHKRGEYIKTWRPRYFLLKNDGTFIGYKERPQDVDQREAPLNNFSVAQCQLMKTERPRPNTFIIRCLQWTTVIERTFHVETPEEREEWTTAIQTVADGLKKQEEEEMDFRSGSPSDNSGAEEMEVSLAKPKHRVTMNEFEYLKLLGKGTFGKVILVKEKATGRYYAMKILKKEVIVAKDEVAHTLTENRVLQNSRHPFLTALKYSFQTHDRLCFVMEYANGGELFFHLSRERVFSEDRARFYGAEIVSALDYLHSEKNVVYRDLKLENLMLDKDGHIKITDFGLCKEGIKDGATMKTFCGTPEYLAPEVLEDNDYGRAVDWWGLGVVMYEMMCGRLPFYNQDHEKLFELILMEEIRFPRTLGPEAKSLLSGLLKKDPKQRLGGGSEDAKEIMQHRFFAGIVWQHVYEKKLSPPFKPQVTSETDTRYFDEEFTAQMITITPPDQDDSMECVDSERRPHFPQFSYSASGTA
Sequence of Tie2 (Q02763 23-1124, species assumed): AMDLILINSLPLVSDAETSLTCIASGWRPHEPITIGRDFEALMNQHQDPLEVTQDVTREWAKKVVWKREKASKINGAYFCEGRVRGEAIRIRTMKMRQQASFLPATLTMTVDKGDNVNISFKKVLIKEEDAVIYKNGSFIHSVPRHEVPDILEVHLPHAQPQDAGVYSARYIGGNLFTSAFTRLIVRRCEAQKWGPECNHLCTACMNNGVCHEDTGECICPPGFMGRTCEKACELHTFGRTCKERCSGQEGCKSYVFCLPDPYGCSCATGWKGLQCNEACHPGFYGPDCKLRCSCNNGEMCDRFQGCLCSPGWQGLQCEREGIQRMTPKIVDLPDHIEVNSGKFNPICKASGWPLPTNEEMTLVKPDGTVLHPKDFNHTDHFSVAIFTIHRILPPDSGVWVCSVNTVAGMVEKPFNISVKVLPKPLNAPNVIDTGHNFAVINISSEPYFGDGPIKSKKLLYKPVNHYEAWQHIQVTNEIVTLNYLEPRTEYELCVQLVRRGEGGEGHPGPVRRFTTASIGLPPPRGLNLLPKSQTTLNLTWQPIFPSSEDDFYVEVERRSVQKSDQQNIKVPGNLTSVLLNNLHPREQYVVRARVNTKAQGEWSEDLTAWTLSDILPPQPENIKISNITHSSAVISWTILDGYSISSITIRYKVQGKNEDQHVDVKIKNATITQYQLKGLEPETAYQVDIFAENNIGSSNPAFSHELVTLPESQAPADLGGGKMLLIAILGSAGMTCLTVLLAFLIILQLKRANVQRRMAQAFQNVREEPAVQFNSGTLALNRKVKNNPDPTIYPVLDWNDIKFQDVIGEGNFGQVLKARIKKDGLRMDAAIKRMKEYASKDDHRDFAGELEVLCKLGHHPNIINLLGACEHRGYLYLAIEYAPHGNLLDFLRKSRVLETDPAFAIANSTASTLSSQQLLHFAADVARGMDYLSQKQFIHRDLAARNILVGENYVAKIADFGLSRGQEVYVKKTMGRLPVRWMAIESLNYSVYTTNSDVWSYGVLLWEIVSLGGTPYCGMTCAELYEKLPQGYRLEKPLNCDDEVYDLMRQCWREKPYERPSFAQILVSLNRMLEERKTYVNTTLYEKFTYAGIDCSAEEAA

For the molecule `O=C(c1cc(=O)c2cc(O)ccc2o1)c1ncc(Cl)nc1Cl`, the pIC50 is 5.03 in test [1], below 6.00 in test [2] and below 5.00 in test [3].
The matching figures for `Cn1ccnc1C(=O)c1cc(=O)c2c(O)cc(O)cc2o1`: below 5.00, below 6.00 and below 5.00.
Consider `Cn1ccnc1C(=O)c1cc(=O)c2cc(O)ccc2o1`, for which the figures for the negative-log IC50 (pIC50) in test [1], in test [2] and in test [3] were below 5.00, below 6.00 and below 5.00, respectively.
For `O=C(c1ccccn1)c1cc(=O)c2c(O)cc(O)cc2o1`, the negative-log IC50 (pIC50) was below 5.00 in test [1], below 6.00 in test [2] and below 5.00 in test [3].
In the case of `O=C(c1ccccn1)c1cc(=O)c2cc(O)ccc2o1`, the pIC50 in test [1] was below 5.00; in test [2], below 6.00; in test [3] it was below 5.00.
In the case of `O=C(c1cc(=O)c2cc(O)ccc2o1)c1nc2ccccc2s1`, the negative-log IC50 (pIC50) in test [1] is below 5.00; in test [2] it was below 6.00; in test [3], below 5.00.
